Measurements reported in patent US11006626B2, “Compounds for protection of cells” (Sulfateq B.V., priority 2012, dated 2021).
Read-outs that look alike come from different tables or passages of the source.

System: Human Embryo Kidney (HEK) 293 cells
Assay: Hypothermia/rewarming injury of HEK cells, trypan blue viability count
Type: cell-based
Conditions: for viability at 0.01 µM / viability at 0.1 µM / viability at 1 µM / viability at 10 µM / viability at 100 µM / viability at 1000 µM: Homo sapiens, read-out: % cells that survived; for viability at 0.01 µM / viability at 0.1 µM / viability at 1 µM / viability at 10 µM / viability at 100 µM / viability at 1000 µM / % cells that survived: 24 h at 4° C., 24 h rewarming; for % cells that survived, Mean: mean over the tested concentrations
Procedure: Human Embryo Kidney (HEK) 293 cells were cultured in DMEM cell culture medium (Life Technologies, 41965-052) supplemented with fetal calf serum, penicillin and streptomycin. Cells were seeded at a density of 0.8-1.2E6 mL-1 in 25 cm2 polystyrene flasks, placed in a 37° C.
The compounds were dissolved in dimethyl sulfoxide (DMSO) to several concentrations. Before commencing experiments, this stock solution was dissolved in pre-warmed DMEM and further diluted to obtain a concentration range from 10 nM-1 mM. Cell culture medium was then replaced by these dilutions and cells were incubated in the presence of the compound for 1 hour. After incubation, lids were closed tightly and flasks were placed in a 4° C. room and cooled for 24 hours. After this cooling period, cells were placed back in the 37° C. incubator with lids closed and were allowed to rewarm for another 24 hours.
After this rewarming period, microscopic images were taken to assess cell morphology (Nikon D5100, Nikon Diaphot-TMD). Cell culture medium was collected and centrifuged (4 minutes, 2000 rpm). The supernatant was collected and pH was immediately measured to prevent equilibration of the pH by the carbonate buffer in the medium, while the pelleted cells were resuspended in 5 mL of PBS. Cells remaining in the flask were washed twice with phosphate buffered saline (PBS) while the washing product was discarded. Subsequently, the cells were trypsinized by addition of 0.5 mL of trypsine and pooled with the resuspended pellet. This cell suspension was then stained at a final concentration of 0.2% trypan blue (Sigma, T8154), followed by manual assessment of viability and cell number on a Bürker-Türk hemocytometer. To conclude the assay, cell culture medium glucose levels were measured (Roche Accutrend Plus) as an indication of metabolic activity. All of these steps were performed with care to prevent mechanical stress to influence or alter the viability of the cells after cooling.
The amount represents the % cells that survived. […] In the control, the same procedure was applied to two badges of HEK cells.

SMILES	viability at 0.01 µM (HEK293, 24 h, 10 nM) [%]	viability at 0.1 µM (HEK293, 24 h, 100 nM) [%]	viability at 1 µM (HEK293, 24 h, 1 μM) [%]	viability at 10 µM (HEK293, 24 h, 10 μM) [%]	viability at 100 µM (HEK293, 24 h, 100 μM) [%]	viability at 1000 µM (HEK293, 24 h, 1 mM) [%]	% cells that survived, Mean [%]	further results
CCCCN1CCN(C(=O)C2(C)CCc3c(C)c(O)c(C)c(C)c3O2)CC1 (centres unmarked) [SUL - 108, (4-butylpiperazin-1-yl)(6-hydroxy-2,5,7,8-tetramethylchroman-2-yl)methanone]	0	40.9	94.2	96.8	96.6	0	55	–
Cc1c(C)c2c(c(C)c1O)CCC(C)(C(=O)NCCBr)O2 (centres unmarked) [SUL - 114, N-(2-bromoethyl)-6-hydroxy-2,5,7,8-tetramethylchroman-2-carboxamide]	–	–	–	–	–	–	71	viability at 0.01 µM (HEK293, 10 nM): 81.1%; viability at 0.1 µM (HEK293, 100 nM): 87.2%; viability at 1 µM (HEK293, 1 μM): 89.9%; viability at 10 µM (HEK293, 10 μM): 87.7%; viability at 100 µM (HEK293, 100 μM): 77.9%; viability at 1000 µM (HEK293, 1 mM): 0%
Cc1c(C)c2c(c(C)c1O)CCC(C)(C)O2 [SUL - 83, 2,2,5,7,8-pentamethylchroman-6-ol]	–	0	79.4	70.1	55.7	1.11	41	–
Cc1c(C)c2c(c(C)c1O)CCC(C)(C(=O)N[C@H](CO)c1ccccc1)O2 (stereo partly drawn) [SUL - 98, 6-hydroxy-N-((S)-2-hydroxy-1-phenylethyl)-2,5,7,8-tetramethylchroman-2-carboxamide]	–	91	97.8	97.5	88.5	1.02	75	–
Cc1c(C)c2c(c(C)c1O)CCC(C)(C(=O)NC(C)C)O2 (centres unmarked) [SUL - 92, 6-hydroxy-N-isopropyl-2,5,7,8-tetramethylchroman-2-carboxamide]	–	3.13	64.6	87.1	86.5	1.55	49	–
Cc1c(C)c2c(c(C)c1O)CCC(C)(CN1CCC[C@H]1CO)O2 (stereo partly drawn) [SUL - 134, 2-(((S)-2-(hydroxymethyl)pyrrolidin-1-yl)methyl)-2,5,7,8-tetramethylchroman-6-ol]	–	–	–	–	–	–	79	% cells that survived (10 nM): 87.43%; % cells that survived (100 nM): 86.34%; % cells that survived (1 μM): 87.74%; % cells that survived (10 μM): 86.58%; % cells that survived (100 μM): 88.82%; % cells that survived (1 mM): 36.51%
COC(=O)C1(C)CCc2c(c(C)c(C(C)C)c(O)c2C(C)C)O1 (centres unmarked) [SUL - 146, methyl 6-hydroxy-5,7-diisopropyl-2,8-dimethylchroman-2-carboxylate]	0.96	17	90.6	80.7	85.5	0	46	–
Cc1c(C)c2c(c(C)c1O)CCC(C)(C(=O)NCCCN1CCCCC1)O2 (centres unmarked) [SUL - 102, 6-hydroxy-2,5,7,8-tetramethyl-N-(3-(piperidin-1-yl)propyl)chroman-2-carboxamide]	73.2	95.8	93.7	82	73.4	93.3	85	–
Cc1c(C)c2c(c(C)c1O)CCC(C)(C(=O)Nc1cccc([N+](=O)[O-])c1)O2 (centres unmarked) [SUL - 104, 6-hydroxy-2,5,7,8-tetramethyl-N-(3-nitrophenyl)chroman-2-carboxamide]	99.3	99.5	97.5	98.9	40.9	52.2	81	–
Cc1c(C)c2c(c(C)c1O)CCC(C)(C(=O)N1CCOCC1)O2 (centres unmarked) [SUL - 95, (6-hydroxy-2,5,7,8-tetramethylchroman-2-yl)(morpholino)methanone]	–	2.76	86.8	90.4	92.1	85.9	72	–
Cc1c(C)c2c(c(C)c1O)CCC(C)(C(N)=O)O2 (centres unmarked) [SUL - 89, 6-hydroxy-2,5,7,8-tetramethylchroman-2-carboxamide]	–	34.9	88.6	91.6	87.6	–	76	–
